For experiment [1], the system named is NCI-H358 cells (KRAS G12C mutant). Kind of experiment: NCI-H358 cell proliferation inhibition (CellTiter-Glo). It counts as cell-based. The note with it: Homo sapiens, NCI-H358, 72 h. The method, then:
The CellTiter-Glo®, assay was used to detect the number of viable cells, in order to evaluate the anti-proliferation efficacy of compounds. […] The compounds were serially diluted 5-fold in DMSO to obtain 8 concentrations, and then further diluted with RPMI-640 (10% FBS) cell culture medium to obtain the working solutions (5′), 20 μL of each working solution was added to the cell culture supernatant in each well, and the plate was further incubated for 3 days at 37° C. with 5% CO2. The plate was then equilibrated with CellTiter-Glo® reagent at room temperature (25° C.) for 10-30 minutes. After aspirating 50 μL of the medium, 50 μL of CellTiter-Glo® reagent was added. The cells were thoroughly mixed with the CellTiter-Glo® reagent using a microplate shaker for 2 minutes, and then incubated at room temperature for 10 minutes. The 96-well plate was placed in a multi-mode microplate reader to record the luminescence values (RLU). The inhibition rate was calculated through the following equation: [formula] Data were analyzed using GraphPad Prism for IC50 values (Note: The negative control refers to the group without inhibitor).
For orientation: In ATP-based viability assays light output follows the ATP content of the culture.

The target of another experiment is PI3Kα (Homo sapiens (Human), UniProt P42336). Kind of experiment: Inhibition of PI3Kα efficacy assay (ADP-Glo kinase assay). The experiment is classed as biochemical. As to conditions: read-out: PI3Kα inhibitory activity (IC50). How it is done: Inhibition of PI3Kα Efficacy assay The ADP-Glo™ kinase assay was used to assess the inhibition of PI3Kα with our compounds. The utilized proteins and assay reagents were obtained from the ADP-Glo™ Kinase Assay Kit (Promega). Initially, a 2 mM stock solution of the test compound (dissolved in DMSO) was serially diluted in five-fold concentrations using DMSO to obtain eight working solutions 1 (200′). […] Subsequently, 2 μL of 2.5×PI and ATP solution mixture were added to each well, mixed, and incubated at RT for 60 minutes. Then, 5 μL of ADP-Glo (containing 10 mM MgCl2) reagent was added to each well, mixed, and incubated at RT for 40 minutes. Finally, 10 μL of the Kinase Detection Reagent was added to each well, mixed, and incubated at RT for 40 minutes. […] Data were analyzed using GraphPad Prism with log(inhibitor) vs. response—Variable Slope(four parameters) fitting calculations for […]. (Note: The negative control refers to the group without inhibitor, and the blank control refers to the group without enzyme.) The data were presented in Tables 1 to 4.
Chain of PI3Kα (P42336 whole entry): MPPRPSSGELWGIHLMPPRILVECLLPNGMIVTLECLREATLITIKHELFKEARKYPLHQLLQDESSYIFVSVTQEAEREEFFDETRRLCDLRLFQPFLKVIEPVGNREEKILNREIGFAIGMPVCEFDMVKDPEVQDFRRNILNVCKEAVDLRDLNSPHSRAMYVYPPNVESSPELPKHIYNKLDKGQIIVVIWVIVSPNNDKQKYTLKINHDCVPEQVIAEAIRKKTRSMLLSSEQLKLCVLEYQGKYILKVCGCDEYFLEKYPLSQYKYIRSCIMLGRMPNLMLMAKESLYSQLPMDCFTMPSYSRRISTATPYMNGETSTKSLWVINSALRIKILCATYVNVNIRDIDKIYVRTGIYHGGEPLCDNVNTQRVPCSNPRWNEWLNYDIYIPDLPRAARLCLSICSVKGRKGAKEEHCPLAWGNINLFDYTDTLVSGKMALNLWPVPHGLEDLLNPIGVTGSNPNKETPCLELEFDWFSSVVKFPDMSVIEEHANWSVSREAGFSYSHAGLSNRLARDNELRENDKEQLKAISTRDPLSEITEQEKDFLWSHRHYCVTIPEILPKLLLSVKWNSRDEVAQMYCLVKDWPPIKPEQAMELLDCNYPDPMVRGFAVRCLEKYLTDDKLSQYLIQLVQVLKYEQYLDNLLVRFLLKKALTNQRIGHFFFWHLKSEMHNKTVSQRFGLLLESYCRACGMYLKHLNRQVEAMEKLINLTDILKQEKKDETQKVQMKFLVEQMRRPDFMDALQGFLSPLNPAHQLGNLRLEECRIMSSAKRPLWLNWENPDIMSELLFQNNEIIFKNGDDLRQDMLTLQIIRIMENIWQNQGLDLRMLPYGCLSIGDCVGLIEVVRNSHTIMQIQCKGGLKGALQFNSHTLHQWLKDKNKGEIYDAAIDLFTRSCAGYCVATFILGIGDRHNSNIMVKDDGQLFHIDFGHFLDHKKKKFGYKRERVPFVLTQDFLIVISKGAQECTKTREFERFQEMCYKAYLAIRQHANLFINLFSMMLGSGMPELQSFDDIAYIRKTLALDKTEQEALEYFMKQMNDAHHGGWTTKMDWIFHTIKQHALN
Chain of PI3Kα (P27986 whole entry partner): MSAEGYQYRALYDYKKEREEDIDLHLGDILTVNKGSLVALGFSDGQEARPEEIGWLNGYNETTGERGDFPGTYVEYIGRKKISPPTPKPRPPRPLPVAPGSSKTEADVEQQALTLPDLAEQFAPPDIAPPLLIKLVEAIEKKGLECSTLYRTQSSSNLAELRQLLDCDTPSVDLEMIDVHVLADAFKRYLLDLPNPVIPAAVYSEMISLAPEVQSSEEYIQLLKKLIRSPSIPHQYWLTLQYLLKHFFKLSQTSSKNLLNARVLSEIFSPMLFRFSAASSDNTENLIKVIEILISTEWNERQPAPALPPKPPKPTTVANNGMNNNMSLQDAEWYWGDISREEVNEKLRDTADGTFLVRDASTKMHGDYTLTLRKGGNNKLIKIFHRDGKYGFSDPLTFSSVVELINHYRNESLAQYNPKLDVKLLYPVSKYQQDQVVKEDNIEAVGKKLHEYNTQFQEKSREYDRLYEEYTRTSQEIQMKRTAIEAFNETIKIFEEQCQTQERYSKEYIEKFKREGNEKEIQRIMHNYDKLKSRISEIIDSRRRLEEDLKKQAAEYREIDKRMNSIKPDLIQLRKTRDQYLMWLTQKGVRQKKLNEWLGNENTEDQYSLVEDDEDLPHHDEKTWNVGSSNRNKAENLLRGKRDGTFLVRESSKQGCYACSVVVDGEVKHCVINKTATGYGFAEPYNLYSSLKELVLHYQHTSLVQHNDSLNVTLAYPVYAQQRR
In general terms: ADP-Glo first removes unused ATP, then detects ADP through luciferase.

[2] abbreviates: H358 cells (G12C mutation), 3 days, Table 6, read-out: NCI-H358 (IC50).

What is called IC50 is the concentration that inhibits the measured activity by half.

Read-outs that look alike come from different tables or passages of the source.

As to `C=CC(=O)N1CCN(c2nc(OC[C@@H]3CCCN3C)nc3ccc(-c4cnc(OC)c(NS(=O)(=O)c5ccc(F)cc5F)c4)cc23)C[C@@H]1CC#N` [Example 5, N-(5-(4-((S)-4-acryloyl-3-(cyanomethyl)piperazin-1-yl)-2-(((S)-1-methylpyrrolidin-2-yl)methoxy)quinazolin-6-yl)-2-methoxypyridin-3-yl)-2,4-difluorobenzenesulfonamide], the half-maximal inhibitory concentration (IC50) in experiment [1] (setting [2]) amounted to 5390 nM.

With `COc1ncc(-c2ccc3ncnc(N4CCN(C(=O)/C=C/CN(C)C)CC4)c3c2)cc1NS(=O)(=O)c1ccc(F)cc1F` [Example 11, (E)-N-(5-(4-(4-(4-(dimethylamino)but-2-enoyl)piperazin-1-yl)quinazolin-6-yl)-2-methoxypyridin-3-yl)-2,4-difluorobenzenesulfonamide], the 50% inhibitory concentration (IC50) at PI3Kα (Table 1) is 0.64 nM; in experiment [1] (setting [2]), 102 nM.

For the molecule `C=CC(=O)N1CCN(c2nc(C)nc3ccc(-c4cnc(OC)c(NS(=O)(=O)c5ccc(F)cc5F)c4)cc23)CC1` [Example 29, N-(5-(4-(4-acryloylpiperazin-1-yl)-2-methylquinazolin-6-yl)-2-methoxypyridin-3-yl)-2,4-difluorobenzenesulfonamide], the concentration for half-maximal inhibition (IC50) on PI3Kα (Table 1) was determined as 41.3 nM.

Turning to `C=C(F)C(=O)N1C[C@H](C)N(c2ncnc3ccc(-c4cnc(OC)c(NS(=O)(=O)c5c(F)cccc5F)c4)cc23)C[C@H]1C` [Example 52, 2,6-difluoro-N-(5-(4-((2S,5R)-4-(2-fluoroacryloyl)-2.5-dimethylpiperazin-1-yl)quinazolin-6-yl)-2-methoxypyridin-3-yl) benzenesulfonamide], the IC50 on PI3Kα (Table 2) worked out at 9.1 nM.

With `C=CC(=O)N1C[C@H](C)N(c2ncnc3ccc(-c4cnc(OC)c(NS(=O)(=O)c5c(F)cccc5F)c4)cc23)C[C@H]1C` [Example 53, N-(5-(4-((2S,5R)-4-acryloyl-2,5-dimethylpiperazin-1-yl)quinazolin-6-yl)-2-methoxypyridin-3-yl)-2,6-difluorobenzene-sulfonamide], the results for the concentration for half-maximal inhibition (IC50) (at PI3Kα (Table 2); in experiment [1] (setting [2])) were 4.4 nM and 520 nM, respectively.

On to `COc1ncc(-c2ccc3ncnc(N4CCN(C(=O)C5=CC(=O)CCC5)CC4)c3c2)cc1NS(=O)(=O)c1c(F)cccc1F` [Example 54, 2,6-difluoro-N-(2-methoxy-5-(4-(4-(3-oxocyclohex-1-ene-1-carbonyl)piperazin-1-yl)quinazolin-6-yl)pyridin-3-yl) benzenesulfonamide], for which the IC50 on PI3Kα (Table 2) amounted to 2.5 nM; in experiment [1] (setting [2]) it was 10.4 nM.

As for `COc1ncc(-c2ccc3ncnc(N4CCC5(CN(C(=O)/C=C/n6ccnn6)C5)C4)c3c2)cc1NS(=O)(=O)c1ccc(F)cc1F` [Example 61, (E)-N-(5-(4-(2-(3-(1H-1,2,3-triazol-1-yl)acryloyl)-2,6-diazaspiro [3.4]octan-6-yl)quinazolin-6-yl)-2-methoxy-pyridin-3-yl)-2,4-difluoro-benzene-sulfonamide], the IC50 was 5.2 nM at PI3Kα (Table 2) and 292 nM in experiment [1] (setting [2]).

As to `C=C(C(=O)N1CCN(c2ncnc3ccc(-c4cnc(OC)c(NS(=O)(=O)c5ccc(F)cc5F)c4)cc23)CC1)C(C)C` [Example 63, 2,4-difluoro-N-(2-methoxy-5-(4-(4-(3-methyl-2-methylene-butanoyl)piperazin-1-yl)quinazolin-6-yl)pyridin-3-yl) benzene-sulfonamide], the IC50 came out at 6.2 nM at PI3Kα (Table 2) and 19.6 nM in experiment [1] (setting [2]).

For `COC(=O)/C=C/C(=O)N1CCN(c2ncnc3ccc(-c4cnc(OC)c(NS(=O)(=O)c5ccc(F)cc5F)c4)cc23)CC1` [Example 67, methyl (E)-4-(4-(6-(5-((2,4-difluorophenyl)sulfonamido)-6-methoxy-pyridin-3-yl)quinazolin-4-yl)piperazin-1-yl)-4-oxobut-2-enoate], the IC50 was 9.8 nM on PI3Kα (Table 2) and 24.2 nM in experiment [1] (setting [2]).

For the molecule `COc1ncc(-c2ccc3ncnc(N4CCN(C(=O)c5cccc(O)c5)CC4)c3c2)cc1NS(=O)(=O)c1ccc(F)cc1F` [Example 69, 2,4-difluoro-N-(5-(4-(4-(3-hydroxy-benzoyl)piperazin-1-yl)quinazolin-6-yl)-2-methoxy-pyridin-3-yl) benzene-sulfonamide], the IC50 in experiment [1] (setting [2]) came to 60.7 nM.

Regarding `COc1ncc(-c2ccc3ncnc(N4CCN(C(=O)/C(F)=C/C(C)=O)CC4)c3c2)cc1NS(=O)(=O)c1ccc(F)cc1F` [Example 77, (Z)-2,4-difluoro-N-(5-(4-(4-(2-fluoro-4-oxopent-2-enoyl)piperazin-1-yl)quinazolin-6-yl)-2-methoxypyridin-3-yl)benzenesulfonamide], the 50% inhibitory concentration (IC50) on PI3Kα (Table 2) was determined as 3.9 nM; in experiment [1] (read-out: NCI-H358 (IC50, nM)), 221 nM.

For `CCCC(=O)/C=C/C(=O)N1CCN(c2ncnc3ccc(-c4cnc(OC)c(N(C)S(=O)(=O)c5ccc(F)cc5F)c4)cc23)CC1` [Example 80, (E)-2,4-difluoro-N-(2-methoxy-5-(4-(4-(4-oxohept-2-enoyl)piperazin-1-yl)quinazolin-6-yl)pyridin-3-yl)-N-methylbenzenesulfonamide], the IC50 in experiment [1] (setting [2]) was 784 nM.

`COc1ncc(-c2ccc3ncnc(N4CCC5(CN(C(=O)/C=C/C(C)=O)C5)C4)c3c2)cc1N(C)S(=O)(=O)c1ccc(F)cc1F` [Example 81, (E)-2,4-difluoro-N-(2-methoxy-5-(4-(2-(4-oxopent-2-enoyl)-2,6-diazaspiro[3.4]octan-6-yl)quinazolin-6-yl)pyridin-3-yl)-N-methylbenzenesulfonamide]: the IC50 in experiment [1] (setting [2]) stood at 1090 nM.

Take `C=C(F)C(=O)N1CCN(c2ncnc3ccc(-c4cnc(Cl)c(NS(=O)(=O)c5c(F)cccc5F)c4)cc23)CC1` [Example 85, N-(2-chloro-5-(4-(4-(2-fluoroacryloyl)piperazin-1-yl)quinazolin-6-yl)pyridin-3-yl)-2,6-difluorobenzenesulfonamide]: the half-maximal inhibitory concentration (IC50) turned out to be 2.8 nM on PI3Kα (Table 2) and 213 nM in experiment [1] (setting [2]).

`CC(=O)/C=C/C(=O)N1CC2(CCN(c3ncnc4ccc(-c5cnc(Cl)c(NS(=O)(=O)c6c(F)cccc6F)c5)cc34)C2)C1` [Example 86, (E)-N-(2-chloro-5-(4-(2-(4-oxopent-2-enoyl)-2,6-diazaspiro[3.4]octan-6-yl)quinazolin-6-yl)pyridin-3-yl)-2,6-difluorobenzenesulfonamide]: the IC50 was determined as 0.31 nM at PI3Kα (Table 2) and 271 nM in experiment [1] (setting [2]).

`CC(=O)/C=C/C(=O)N1CC2(CCN(c3ncnc4ccc(-c5cnc(Cl)c(NS(=O)(=O)c6c(F)cccc6F)c5)cc34)CC2)C1` [Example 87, (E)-N-(2-chloro-5-(4-(2-(4-oxopent-2-enoyl)-2,7-diazaspiro[3.5]nonan-7-yl)quinazolin-6-yl)pyridin-3-yl)-2,6-difluorobenzenesulfonamide]: the concentration for half-maximal inhibition (IC50) amounted to 2.4 nM on PI3Kα (Table 2) and 131 nM in experiment [1] (setting [2]).

Take `COc1ccc(-c2ccc3ncnc(N4CCN(C(=O)/C=C/C(C)=O)CC4)c3c2)cc1NS(=O)(=O)c1ccc(F)cc1F` [Example 95, (E)-2,4-difluoro-N-(2-methoxy-5-(4-(4-(4-oxopent-2-enoyl)piperazin-1-yl)quinazolin-6-yl)phenyl)benzenesulfonamide]: the half-inhibitory concentration (IC50) turned out to be 414 nM on PI3Kα (Table 2) and 576 nM in experiment [1] (setting [2]).

For the molecule `COc1c(F)cc(-c2ccc3ncnc(N4CCN(C(=O)/C=C/C(C)=O)CC4)c3c2)cc1NS(=O)(=O)c1ccc(F)cn1` [Example 121, (E)-5-fluoro-N-(3-fluoro-2-methoxy-5-(4-(4-(4-oxopent-2-enoyl)piperazin-1-yl)quinazolin-6-yl)phenyl)pyridine-2-sulfonamide], the IC50 at PI3Kα (Table 2) was 111 nM.

Regarding `CC(=O)/C=C/C(=O)N1CCN(c2ncnc3ccc(-c4cnc(CO)c(NS(=O)(=O)c5ccc(F)cc5F)c4)cc23)CC1` [Example 183, (E)-2,4-difluoro-N-(2-(hydroxy-methyl)-5-(4-(4-(4-oxopent-2-enoyl)piperazin-1-yl)quinazolin-6-yl)pyridin-3-yl)benzene-sulfonamide], the IC50 at PI3Kα (Table 4) was 5.3 nM.

With `COc1ncc(-c2ccc3ncnc(N4CCN(C(=O)/C=C/C(C)=O)CC4)c3c2)cc1NS(=O)(=O)c1ccc(C(=O)O)cc1F` [Example 209, (E)-3-fluoro-4-(N-(2-methoxy-5-(4-(4-(4-oxopent-2-enoyl)piperazin-1-yl)quinazolin-6-yl)pyridin-3-yl)sulfamoyl)benzoic acid], the IC50 at PI3Kα (Table 4) was determined as 0.57 nM.

Take `[2H]C([2H])([2H])n1cc(-c2ccc3ncnc(N4CCN(C(=O)/C=C/C(C)=O)CC4)c3c2)cc(NS(=O)(=O)c2ccc(F)cc2F)c1=O` [Example 244, (E)-2,4-difluoro-N-(1-(methyl-d3)-2-oxo-5-(4-(4-(4-oxopent-2-enoyl)piperazin-1-yl)quinazolin-6-yl)-1,2-dihydropyridin-3-yl)benzenesulfonamide]: on PI3Kα (Table 4), the IC50 was 270 nM.

The values are drawn from patent publication US20250145589A1, “PYRIDINE DERIVATIVE AND USE THEREOF” (SICHUAN HUIYU PHARMACEUTICAL CO., LTD., priority 2021, published 2025).
